Experimental data reported in patent US9994528B2, “Certain amino-pyridines and amino-triazines, compositions thereof, and methods for their use” (Cytokinetics, Inc., priority 2010, dated 2018).

tested on: rabbit skeletal myofibrils (approximately 90% fast fibers); assay: Activation of fast skeletal myofibrils (PUMA coupled-enzyme ATPase assay); type: biochemical; details: AC1.4 = concentration at which the compound increased the enzymatic activity by 40%; myofibril suspension at calcium level pCa25; PM12 buffer pH 6.8
Method: Preparation of fast skeletal myofibrils. Rabbit skeletal myofibrils were prepared based upon the method of Herrmann et al. (Biochem. 32(28):7255-7263(1993). Myofibrils were prepared from rabbit psoas muscle purchased from Pel-Freez Biologicals (Arkansas) within 2 days of ordering, stored on ice. Minced muscle was homogenized in 10 volumes of ice-cold “standard” buffer (50 mM Tris, pH 7.4, 0.1 M potassium acetate, 5 mM KCl, 2 mM DTT, 0.2 mM PMSF, 10 μM leupeptin, 5 μM pepstatin, and 0.5 mM sodium azide) containing 5 mM EDTA and 0.5% Triton X-100 using an Omni-Macro homogenizer. Myofibrils were recovered by low speed centrifugation (3000 rpm for 10 minutes) and washed 2 times in the Triton X-100 containing buffer to ensure removal of cellular membrane. Following the Triton washes, myofibrils were washed 3 times in “standard” buffer containing 2 mM magnesium acetate. A final wash in assay buffer (12 mM PIPES, pH 6.8, 60 mM KCl, 1 mM DTT) was performed and brought to 10% sucrose for flash freezing in liquid nitrogen and storage at −80° C.
Activation of Fast Skeletal Myofibrils. Fast fiber activators were identified by measuring the enzymatic activity of muscle myofibril preparations using the proprietary PUMA™ (see, e.g., U.S. Pat. Nos. 6,410,254, 6,743,599, 7,202,051, and 7,378,254) assay system. Myofibril preparations consisted of rabbit skeletal muscle (approximately 90% fast fibers) that had been mechanically homogenized and washed with a detergent (triton X-100) to remove cellular membranes. This preparation retained all of the sarcomeric components in a native conformation and the enzymatic activity was still regulated by calcium. Compounds were tested using a myofibril suspension and a level of calcium sufficient to increase enzymatic activity of the myofibrils to 25% of their maximal rate (termed pCa25). Enzymatic activity was tracked via a pyruvate kinase and lactate dehydrogenase-coupled enzyme system. This assay regenerates myosin-produced ADP into ATP by oxidizing NADH, producing an absorbance change at 340 nm. The buffering system was 12 mM Pipes, 2 mM MgCl2, 1 mM DTT at pH 6.8 (PM12 buffer).
Using procedures similar to those described herein, utilizing reagents and intermediates commercially available (e.g., Sigma-Aldrich,) or readily synthesized by one of skill in the art, the compounds in Table 2 were synthesized, characterized and tested. AC1.4 values were determined according to the procedure described in Example 25, and the reported median AC1.4 values are as follows: A=<1 uM; B=1-10 uM; C=10-20 uM; D=>20 uM.

SMILES	Mean AC1.4
CC(C)(Nc1ncc(-c2cc(C(N)=O)ccc2F)nn1)c1ncccc1Cl [3-(3-{[1-(3-chloro(2-pyridyl))-isopropyl]amino}(1,2,4-triazin-6-yl))-4-fluorobenzamide]	B (B=1-10 uM)
CC(C)(Nc1ncc(-c2ncc(CC(N)=O)s2)nn1)c1ncccc1F [2-[2-(3-{[1-(3-fluoro(2-pyridyl))-isopropyl]amino}-1,2,4-triazin-6-yl)-1,3-thiazol-5-yl]acetamide]	D (D=>20 uM)
COC(=O)c1ccc(F)c(-c2cnc(NC(C)(C)c3cccc(S(C)(=O)=O)c3)nn2)c1 [methyl 4-fluoro-3-[3-({1-methyl-1-[3-(methylsulfonyl)phenyl]ethyl}amino)(1,2,4-triazin-6-yl)]benzoate]	D (D=>20 uM)
CC(=O)NCc1cnc(-c2cnc(NC(C)(C)c3ncccc3Cl)nn2)s1 [N-{[2-(3-{[1-(3-chloro(2-pyridyl))-isopropyl]amino}-1,2,4-triazin-6-yl)-1,3-thiazol-5-yl]methyl}acetamide]	D (D=>20 uM)
CC(C)(Nc1ncc(-c2cc(C(=O)O)ccc2F)nn1)c1ncccc1F [4-fluoro-3-(3-{[1-(3-fluoro(2-pyridyl))-isopropyl]amino}(1,2,4-triazin-6-yl))benzoic acid]	C (C=10-20 uM)
N#Cc1cccc(-c2cnc(NCC3(c4ccccn4)CCC3)nn2)c1 [3-(3-{[(2-pyridylcyclobutyl)methyl]amino}-1,2,4-triazin-6-yl)benzenecarbonitrile]	B (B=1-10 uM)
c1ccc(-c2ccnc(NC3(c4ccccc4)CCC3)c2)cc1 [(4-phenyl(2-pyridyl))(phenylcyclobutyl)amine]	C (C=10-20 uM)
CC(C)(Nc1ncc(-n2cc(C(N)=O)cn2)nn1)c1cccc(OC(F)F)n1 [1-[3-({1-[6-(difluoromethoxy)(2-pyridyl)]-isopropyl}amino)-1,2,4-triazin-6-yl]pyrazole-4-carboxamide]	B (B=1-10 uM)
COC(=O)c1ccc(F)c(-c2cnc(NCC3(c4ccccn4)CCC3)nn2)c1 [methyl 4-fluoro-3-(3-{[(2-pyridylcyclobutyl)methyl]amino}(1,2,4-triazin-6-yl))benzoate]	C (C=10-20 uM)
CC(=O)NCc1cnc(-c2cnc(NC[C@]3(c4ncccc4F)C[C@H](F)C3)nn2)s1 [N-({2-[3-({[3-fluoro-1-(3-fluoro(2-pyridyl))cyclobutyl]methyl}amino)-1,2,4-triazin-6-yl]-1,3-thiazol-5-yl}methyl)acetamide]	B (B=1-10 uM)
CC(C)(Nc1ncc(-n2cc(C(N)=O)cn2)nn1)c1ncccc1F [1-(3-{[1-(3-fluoro(2-pyridyl))-isopropyl]amino}-1,2,4-triazin-6-yl)pyrazole-4-carboxamide]	D (D=>20 uM)
NC(=O)c1ccc(F)c(-c2cnc(NC3(c4ccc(F)cc4)CCC3)nn2)c1 [4-fluoro-3-(3-{[(4-fluorophenyl)cyclobutyl]amino}(1,2,4-triazin-6-yl))benzamide]	B (B=1-10 uM)
CC(C)(Nc1ncc(-c2cc(C(=O)NC[C@H](O)CO)ccc2F)nn1)c1ncccc1F [N-((2S)-2,3-dihydroxypropyl)[4-fluoro-3-(3-{[1-(3-fluoro(2-pyridyl))-isopropyl]amino}(1,2,4-triazin-6-yl))phenyl]carboxamide]	C (C=10-20 uM)
COC(=O)NCCc1ccc(NCC(C)(C)c2ccc(F)cc2)nc1 [N-[2-(6-{[2-(4-fluorophenyl)-2-methylpropyl]amino}(3-pyridyl))ethyl]methoxycarboxamide]	D (D=>20 uM)
CNC(=O)c1ccc(F)c(-c2cnc(NC[C@]3(c4ncccc4Cl)C[C@H](F)C3)nn2)c1 [{3-[3-({[1-(3-chloro(2-pyridyl))-3-fluorocyclobutyl]methyl}amino)(1,2,4-triazin-6-yl)]-4-fluorophenyl}-N-methylcarboxamide]	A (A=<1 uM)
NC(=O)c1ccc(F)c(-c2cnc(NCc3cccc(OC(F)F)n3)nn2)c1 [3-[3-({[6-(difluoromethoxy)(2-pyridyl)]methyl}amino)(1,2,4-triazin-6-yl)]-4-fluorobenzamide]	D (D=>20 uM)

SMILES	Mean AC1.4
NC(=O)c1cccc(-c2cnc(NCC3(c4ncccc4F)CCC3)nn2)c1 [3-[3-({[(3-fluoro-2-pyridyl)cyclobutyl]methyl}amino)-1,2,4-triazin-6-yl]benzamide]	B (B=1-10 uM)
CC(C)(CNc1ccc(CCNS(C)(=O)=O)cn1)c1ccc(F)cc1 [[2-(6-{[2-(4-fluorophenyl)-2-methylpropyl]amino}(3-pyridyl))ethyl](methylsulfonyl)amine]	D (D=>20 uM)
NC(=O)c1cnn(-c2cnc(NC3(c4ncccc4F)CCC3)nn2)c1 [1-(3-{[(3-fluoro-2-pyridyl)cyclobutyl]amino}-1,2,4-triazin-6-yl)pyrazole-4-carboxamide]	D (D=>20 uM)
NC(=O)c1ccc(F)c(-c2cnc(NCC3(c4ncccc4F)CCC3)nn2)c1 [4-fluoro-3-[3-({[(3-fluoro(2-pyridyl))cyclobutyl]methyl}amino)(1,2,4-triazin-6-yl)]benzamide]	A (A=<1 uM)
CC(C)(Nc1ncc(-c2ccc(F)c(C(=O)O)c2)nn1)c1ncccc1F [2-fluoro-5-(3-{[1-(3-fluoro(2-pyridyl))-isopropyl]amino}(1,2,4-triazin-6-yl))benzoic acid]	D (D=>20 uM)
CC(C)(Nc1ncc(-c2ncc(CO)s2)nn1)c1ncccc1Cl [[2-(3-{[1-(3-chloro(2-pyridyl))-isopropyl]amino}-1,2,4-triazin-6-yl)-1,3-thiazol-5-yl]methan-1-ol]	D (D=>20 uM)
COC(=O)c1ccc(-c2cnc(NC(C)(C)c3ncccc3F)nn2)c(F)c1 [methyl 3-fluoro-4-(3-{[1-(3-fluoro(2-pyridyl))-isopropyl]amino}(1,2,4-triazin-6-yl))benzoate]	D (D=>20 uM)
CC(C)(CNc1ccc2cc(C(N)=O)ccc2n1)c1ccc(F)cc1 [2-{[2-(4-fluorophenyl)-2-methylpropyl]amino}quinoline-6-carboxamide]	B (B=1-10 uM)
CC(C)(Nc1ncc(-c2cccc(CC(N)=O)c2)nn1)c1ncccc1F [2-[3-(3-{[1-(3-fluoro(2-pyridyl))-isopropyl]amino}-1,2,4-triazin-6-yl)phenyl]acetamide]	D (D=>20 uM)
CC(=O)NCc1ccc(F)c(-c2cnc(NC(C)(C)c3ncccc3F)nn2)c1 [N-{[4-fluoro-3-(3-{[1-(3-fluoro(2-pyridyl))-isopropyl]amino}(1,2,4-triazin-6-yl))phenyl]methyl}acetamide]	D (D=>20 uM)
CC(C)(Nc1ncc(-c2cc(C#N)ccc2F)nn1)c1ncccc1C(F)F [3-[3-({1-[3-(difluoromethyl)(2-pyridyl)]-isopropyl}amino)(1,2,4-triazin-6-yl)]-4-fluorobenzenecarbonitrile]	D (D=>20 uM)
NC(=O)c1cccc(-c2cnc(NCC3(c4ccccn4)CCC3)nn2)c1 [3-(3-{[(2-pyridylcyclobutyl)methyl]amino}-1,2,4-triazin-6-yl)benzamide]	B (B=1-10 uM)
CC(C)(Nc1ncc(-c2cc(CN)ccc2F)nn1)c1ncccc1F [{6-[5-(aminomethyl-2-fluorophenyl](1,2,4-triazin-3-yl)}[1-(3-fluoro(2-pyridyl))-isopropyl]amine]	D (D=>20 uM)
NC(=O)c1ccc(F)c(-c2cnc(NC[C@]3(c4ncccc4F)C[C@H](F)C3)nn2)c1 [4-fluoro-3-[3-({[3-fluoro-1-(3-fluoro(2-pyridyl))cyclobutyl]methyl}amino)(1,2,4-triazin-6-yl)]benzamide]	A (A=<1 uM)
OCc1cnc(-c2cnc(NCC3(c4ncccc4F)CCC3)nn2)s1 [{2-[3-({[(3-fluoro-2-pyridyl)cyclobutyl]methyl}amino)-1,2,4-triazin-6-yl]-1,3-thiazol-5-yl}methan-1-ol]	C (C=10-20 uM)
c1ccc(-c2ccc(NC3(c4ccccc4)CCC3)nc2)cc1 [(5-phenyl(2-pyridyl))(phenylcyclobutyl)amine]	B (B=1-10 uM)
